# Results taken from the supplement of paper PMC4862054.
# Assays:
# Conditions in all cases: incubation time: 72 h
# [1] = tested on: HCC1599; test: normalised response (% of control), CellTiter-Glo; higher = more viable cells (100 = DMSO, 0 = benzethonium chloride kill control)
# Method in brief: (§1)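 Breast cancer cell lines (20 µl suspension) were seeded into 384-well plates holding compound at 5 concentrations in 10-fold steps over a compound-specific 10,000-fold range, then incubated 72 h. CellTox Green fluorescence (485/520 nm) was read first, then CellTiter-Glo luminescence after 10 min at room temperature. Each plate was normalised to 0.1 % DMSO (100) and a positive kill control (0). Each value is the normalised signal at a single concentration of the series.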
# [2] = tested on: SK-BR-3; test: as above
# Method in brief: as §1
# [3] = tested on: MCF-10A; test: as above
# Method in brief: as §1
# [4] = tested on: MDA-MB-231; test: as above
# Method in brief: as §1
# [5] = tested on: HCC1937; test: as above
# Method in brief: as §1
# [6] = tested on: DU-4475; test: as above
# Method in brief: as §1
# [7] = tested on: HDQ-P1; test: as above
# Method in brief: as §1
# [8] = tested on: CAL-85-1; test: as above
# Method in brief: as §1
# [9] = tested on: CAL-120; test: as above
# Method in brief: as §1
# [10] = tested on: MDA-MB-453; test: as above
# Method in brief: as §1
# [11] = tested on: MFM-223; test: as above
# Method in brief: as §1
# [12] = tested on: CAL-148; test: as above
# Method in brief: as §1
# [13] = tested on: HCC1143; test: as above
# Method in brief: as §1
# [14] = tested on: MDA-MB-468; test: as above
# Method in brief: as §1
# [15] = tested on: CAL-51; test: as above
# Method in brief: as §1
# [16] = tested on: BT-474; test: as above
# Method in brief: as §1
# [17] = tested on: MDA-MB-436; test: as above
# Method in brief: as §1
# [18] = tested on: Hs578T; test: as above
# Method in brief: as §1
# [19] = tested on: BT-549; test: as above
# Method in brief: as §1
# [20] = tested on: HCC1599; test: normalised response (% of control), CellTox Green; higher = less cell death (100 = DMSO, 0 = benzethonium chloride kill control)
# Method in brief: as §1
# [21] = tested on: MCF-10A; test: as above
# Method in brief: as §1
# [22] = tested on: MDA-MB-231; test: as above
# Method in brief: as §1
# [23] = tested on: HCC1937; test: as above
# Method in brief: as §1
# [24] = tested on: DU-4475; test: as above
# Method in brief: as §1
# [25] = tested on: HDQ-P1; test: as above
# Method in brief: as §1
# [26] = tested on: CAL-85-1; test: as above
# Method in brief: as §1
# [27] = tested on: CAL-120; test: as above
# Method in brief: as §1
# [28] = tested on: MDA-MB-453; test: as above
# Method in brief: as §1
# [29] = tested on: MFM-223; test: as above
# Method in brief: as §1
# [30] = tested on: CAL-148; test: as above
# Method in brief: as §1
# [31] = tested on: HCC1143; test: as above
# Method in brief: as §1
# [32] = tested on: MDA-MB-468; test: as above
# Method in brief: as §1
# [33] = tested on: CAL-51; test: as above
# Method in brief: as §1
# [34] = tested on: BT-474; test: as above
# Method in brief: as §1
# [35] = tested on: MDA-MB-436; test: as above
# Method in brief: as §1
# [36] = tested on: Hs578T; test: as above
# Method in brief: as §1
# [37] = tested on: BT-549; test: as above
# Method in brief: as §1
Structure (SMILES),normalised response [1] [%],normalised response [2] [%],normalised response [3] [%],normalised response [4] [%],normalised response [5] [%],normalised response [6] [%],normalised response [7] [%],normalised response [8] [%],normalised response [9] [%],normalised response [10] [%],normalised response [11] [%],normalised response [12] [%],normalised response [13] [%],normalised response [14] [%],normalised response [15] [%],normalised response [16] [%],normalised response [17] [%],normalised response [18] [%],normalised response [19] [%],normalised response [20] [%],normalised response [21] [%],normalised response [22] [%],normalised response [23] [%],normalised response [24] [%],normalised response [25] [%],normalised response [26] [%],normalised response [27] [%],normalised response [28] [%],normalised response [29] [%],normalised response [30] [%],normalised response [31] [%],normalised response [32] [%],normalised response [33] [%],normalised response [34] [%],normalised response [35] [%],normalised response [36] [%],normalised response [37] [%]
C/C(=C\c1csc(C)n1)[C@@H]1C[C@@H]2O[C@]2(C)CCC[C@H](C)[C@H](O)[C@@H](C)C(=O)C(C)(C)[C@@H](O)CC(=O)N1 [Ixabepilone] (10 nM),95.2,113,108,98.6,95.4,104,102,97.5,102,101,105,102,102,93.7,86,100,106,107,102,101,84.4,102,107,104,101,99,102,93.6,95.7,94.7,80.8,123,102,98.7,86.6,84,82.4
CN(C)C(=N)NC(=N)N [Metformin] (1000 nM),95.9,81.9,77,94.1,93.2,88.4,98,97.7,104,84.3,83.2,102,102,90.3,65.9,96.3,108,102,103,95.2,-3.22,63.5,93.4,91.6,70.7,97.9,96.5,91,101,95.7,85.4,61,71.1,92,71.8,105,70.4
CN(Cc1cnc2nc(N)nc(N)c2n1)c1ccc(C(=O)N[C@@H](CCC(=O)O)C(=O)O)cc1 [Methotrexate] (500 nM),118,108,104,111,27.3,105,57,95.6,81.8,110,105,106,96.4,101,95.3,101,91.9,102,102,102,96.5,84.1,112,105,102,98.4,100,106,101,102,114,118,104,102,105,87.8,99.2
Cc1cn(-c2cc(NC(=O)c3ccc(C)c(Nc4nccc(-c5cccnc5)n4)c3)cc(C(F)(F)F)c2)cn1 [Nilotinib] (100 nM),106,96.3,104,94.9,95.4,103,105,107,94.4,96.3,96,106,94.2,103,81.9,99,100,97.6,115,105,99.2,110,103,102,68.1,105,85.9,85.7,61.4,93.5,109,123,96.3,102,103,85.3,97.5
CC[C@H](CO)Nc1nc(NCc2ccccc2)c2ncn(C(C)C)c2n1 [Seliciclib] (100 nM),110,106,97.1,99.8,94.2,104,101,98.6,97.6,114,107,112,106,102,101,105,105,104,102,109,104,96,118,101,105,92.4,98.4,104,107,108,82.7,102,105,97.1,61.4,100,102
C=CCN(/C=C1/C(=O)O[C@H](COC)[C@@]2(C)C1=C(O)C(=O)C1=C2[C@H](OC(C)=O)C[C@]2(C)C(=O)CC[C@@H]12)CC=C [Sonolisib] (100 nM),104,107,108,107,99.7,105,102,109,109,102,107,116,105,105,85.2,106,106,94.7,106,115,72.8,110,121,106,63.5,106,101,106,109,98.6,117,112,102,96.5,107,73.7,108
